Measurements reported in patent US20060122281A1, “Regimen for treating prostate tissue and surgical kit for use in the regimen” (AMS Research Corporation, priority 2001, published 2006).
“And” between values parts separate entries of the source, which are not always exact repeats. Identical values can stand only once.

Tests used:
prostate weight = settings: compared with antiandrogens presently used; cited from earlier work
[1] = tested on: Human patients exhibiting symptoms of BPH; assay: Prostate size by MRI after transurethral ethanol ablation with coadministered bicalutamide; type: in vivo; settings: individual patient
Experimental: (§1) Measurements of each patient's prostate size were obtained prior to ethanol ablation by MRI. Flowmetry measurements were also taken.
(§2) Each patient was then administered ethanol ablation therapy by transurethral injection directly into prostate tissue, as summarized in Table 1. Total amount of ethanol injected ranged from about 22% to about 38% relative to the volume of the patient's prostate. The number of injection sites ranged from 3 to 11; the average number of injection sites was 5.8. Following ethanol ablation therapy, each patient was administered bicalutamide, 150 mg orally each day for sixty days, beginning on the day of treatment.
(§3) A three-month and six-month follow-up examination was done for each patient to evaluate prostate size and flowmetry results.

[2] = tested on: Human patients exhibiting symptoms of BPH; assay: Flowmetry after transurethral ethanol ablation with coadministered bicalutamide; type: in vivo; settings: individual patient
Experimental: as §1, §2, §3

[3] = tested on: Human patients exhibiting symptoms of BPH; assay: International Prostate Symptom Score questionnaire; type: in vivo; settings: individual patient
Experimental: as §2, with “Measurements of each patient's prostate size were obtained prior to ethanol ablation by MRI. Flowmetry measurements were also taken. Each” for “Each”, “treatment. Survey data was also acquired pre-treatment and at the three-month and six-month followups. Patients were evaluated for subjective symptom severity using an International Prostate Symptom Score questionnaire.” for “treatment.”

[4] = dosages up to 200 mg per day, long-term clinical trials; cited from earlier work

Structure (SMILES) | potency in reducing prostate weight (prostate weight) | Post-treatment Evaluation (3 months) Size ([1]; 3 months after transurethral ethanol ablation plus bicalutamide 150 mg orally each day for sixty days) | Post-treatment Evaluation (6 months) Size ([1]; 6 months after transurethral ethanol ablation plus bicalutamide 150 mg orally each day for sixty days) | Post-treatment Evaluation (3 months) Qmax ([2]; maximum flow rate, 3 months after ethanol ablation plus bicalutamide 150 mg orally daily for sixty days) | Post-treatment Evaluation (6 months) Qmax ([2]; maximum flow rate, 6 months after ethanol ablation plus bicalutamide 150 mg orally daily for sixty days) | Post-treatment Evaluation (3 months) Qmed ([2]; median flow rate, 3 months after ethanol ablation plus bicalutamide 150 mg orally daily for sixty days) | Post-treatment Evaluation (6 months) Qmed ([2]; median flow rate, 6 months after ethanol ablation plus bicalutamide 150 mg orally daily for sixty days) | IPSS at 3 months ([3]; 3 months after ethanol ablation plus bicalutamide 150 mg orally daily for sixty days) | IPSS at 6 months ([3]; 6 months after ethanol ablation plus bicalutamide 150 mg orally daily for sixty days) | tolerability [4]
CC1(C)C(=O)N(c2ccc(C#N)c(C(F)(F)F)c2)C(=O)N1CC#N [RU 58642] | more potent |  |  |  |  |  |  |  |  | 
CC(O)(CS(=O)(=O)c1ccc(F)cc1)C(=O)Nc1ccc(C#N)c(C(F)(F)F)c1 (racemic) [bicalutamide, (+−) N-[4-cyano-3-(trifluoromethyl)phenyl]-3-[(4-fluorophenyl)sulfonyl]-2-hydroxy-2-methyl propanimide] |  | 40 g (2×) and 36 g and 28 g and 30 g (2×) and 25 g and 78 g (2×) and 63 g and 45 g and 42 g and 54 g and 98 g and 15 g | 28 g (2×) and 30 g and 20 g (3×) and 21 g (2×) and 19 g (2×) and 32 g and 18 g (2×) and 27 g and 23 g | 18 mL/sec (2×) and 7 mL/sec and 4 mL/sec and 12 mL/sec (2×) and 11 mL/sec (2×) and 17 mL/sec (2×) and 13 mL/sec (2×) and 15 mL/sec and 10 mL/sec and 21 mL/sec | 18 mL/sec and 13 mL/sec (2×) and 19 mL/sec and 15 mL/sec (4×) and 14 mL/sec and 30 mL/sec and 17 mL/sec (2×) and 12 mL/sec and 20 mL/sec and 21 mL/sec | 11 mL/sec and 3 mL/sec (2×) and 4 mL/sec and 7 mL/sec (4×) and 5 mL/sec (3×) and 8 mL/sec and 2 mL/sec (2×) and 9 mL/sec | 11 mL/sec (3×) and 10 mL/sec (4×) and 9 mL/sec (5×) and 13 mL/sec and 8 mL/sec and 5 mL/sec | 10 (2×) and 4 (2×) and 8 (2×) and 24 and 9 and 21 and 14 and 15 and 13 and 3 and 20 and 18 | 9 (2×) and 6 and 8 (4×) and 14 and 12 (2×) and 7 and 10 and 3 and 20 and 4 | well-tolerated
